target: recombinant human S1P1 receptor (Homo sapiens, UniProt P21453); assay: GTPγS assay to determine EC50 values; type: biochemical; settings: 35S-GTPγS binding, membrane preparations of CHO cells expressing recombinant human S1P1 receptor
Method: The pH is 7.4. Test compounds are dissolved and diluted in 100% DMSO and pre-incubated at room temperature for 30 min in 150 μl of the above assay buffer, in the absence of ^35S-GTPγS. After addition of 50 μl of ^35S-GTPγS, the assay is incubated for 1 h at room temperature. […] Membrane-bound ^35S-GTPγS is measured with a TopCount from Packard Biosciences.
Specific binding is determined by subtracting non-specific binding from maximal binding. Maximal binding is the amount of cpm bound to the Multiscreen plate in the presence of 10 μM of S1P. Non-specific binding is the amount of binding in the absence of an agonist in the assay.
The EC50 values were determined according to the method described above.

Sequence of recombinant human S1P1 receptor (P21453 whole entry): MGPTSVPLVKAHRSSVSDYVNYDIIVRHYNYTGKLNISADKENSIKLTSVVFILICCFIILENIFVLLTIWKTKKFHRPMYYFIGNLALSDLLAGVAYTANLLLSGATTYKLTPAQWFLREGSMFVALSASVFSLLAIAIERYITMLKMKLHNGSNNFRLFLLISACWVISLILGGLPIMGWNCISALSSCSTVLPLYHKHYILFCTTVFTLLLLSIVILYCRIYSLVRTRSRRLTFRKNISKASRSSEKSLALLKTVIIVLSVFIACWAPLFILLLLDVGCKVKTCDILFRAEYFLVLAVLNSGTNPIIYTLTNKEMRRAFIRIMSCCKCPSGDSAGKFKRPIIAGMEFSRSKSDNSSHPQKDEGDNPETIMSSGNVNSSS

Row | EC50 [nM] | Compound
1 | 3 | Cc1sc(C(=O)CCc2ccc(CCCN)cc2)c2c1[C@H]1[C@@H](C2)C1(C)C [Example 2]
2 | 58 | Cc1cc(CCC(=O)c2sc(C)c3c2C[C@@H]2[C@H]3C2(C)C)ccc1OCCN(C)C [Example 37]
3 | 12 | Cc1sc(C(=O)CCc2ccc(CC(O)CO)cc2)c2c1[C@H]1[C@@H](C2)C1(C)C (stereo partly drawn) [Example 1, 3-[4-((2S/R)-2,3-dihydroxy-propyl)-phenyl]-1-((1aS,5aR)-1,1,2-trimethyl-1,1a,5,5a-tetrahydro-3-thia-cyclopropa[a]pentalen-4-yl)-propan-1-one]
4 | 2.3 | COCC(O)COc1c(C)cc(CCC(=O)c2sc(C)c3c2C[C@@H]2[C@H]3C2(C)C)cc1C (stereo partly drawn) [Example 233, 3-[4-(2-Hydroxy-3-methoxy-propoxy)-3,5-dimethyl-phenyl]-1-((1aS,5aR)-1,1,2-trimethyl-1,1a,5,5a-tetrahydro-3-thia-cyclopropa[a]pentalen-4-yl)-propan-1-one]
5 | 1.4 | Cc1sc(C(=O)CCc2ccc(OCC(O)CNCCC(=O)O)c(Cl)c2)c2c1C1C(C2)C1(C)C (stereo not drawn) [Example 60]
6 | 28 | COc1cc(CCC(=O)c2sc(C)c3c2CC2C3C2(C)C)cc(Cl)c1OCC(O)CN1CCNCC1 (stereo not drawn) [Example 175]
7 | 0.8 | Cc1cc(CCC(=O)c2sc(C)c3c2C[C@@H]2[C@H]3C2(C)C)cc(C)c1CC(O)CO (stereo partly drawn) [Example 239, 3-[4-(2,3-dihydroxy-propyl)-3,5-dimethyl-phenyl]-1-((1aS,5aR)-1,1,2-trimethyl-1,1a,5,5a-tetrahydro-3-thia-cyclopropa[a]pentalen-4-yl)-propan-1-one]
8 | 2.9 | Cc1cc(CCC(=O)c2sc(C)c3c2C[C@@H]2[C@H]3C2(C)C)cc(C)c1CCC(=O)NC(CO)CO [Example 237, 3-{2,6-Dimethyl-4-[3-oxo-3-((1aS,5aR)-1,1,2-trimethyl-1,1a,5,5a-tetrahydro-3-thia-cyclopropa [a]pentalen-4-yl)-propyl]-phenyl}-N-(2-hydroxy-1-hydroxymethyl-ethyl)-propionamide]
9 | 1.1 | CCc1cc(CCC(=O)c2sc(C)c3c2CC2C3C2(C)C)cc(C)c1OCC(O)CNC(=O)CO (stereo not drawn) [Example 244]
10 | 6 | Cc1sc(C(=O)CCc2ccc(C(=O)NCCN)cc2)c2c1[C@H]1[C@@H](C2)C1(C)C [Example 31]
11 | 2.7 | Cc1cc(CCC(=O)c2sc(C)c3c2C[C@@H]2[C@H]3C2(C)C)cc(C)c1OCC(O)CNC(=O)CN (stereo partly drawn) [Example 234, 2-amino-N-(3-{2,6-dimethyl-4-[3-oxo-3-((1aS,5aR)-1,1,2-trimethyl-1,1a,5,5a-tetrahydro-3-thia-cyclopropa[a]pentalen-4-yl)-propyl]-phenoxy}-2-hydroxy-propyl)-acetamide]
12 | 2 | Cc1cc(CCC(=O)c2sc(C)c3c2CC2C3C2(C)C)ccc1OCC(O)CNCCC(=O)O (stereo not drawn) [Example 48]
13 | 13 | Cc1sc(C(=O)CCc2ccc(CCC(N)=O)cc2)c2c1[C@H]1[C@@H](C2)C1(C)C [Example 13]
14 | 2 | COc1cc(CCC(=O)c2sc(C)c3c2CC2C3C2(C)C)cc(Cl)c1OCCN1CCC(C(=O)O)C1 (stereo not drawn) [Example 149]
15 | 1.1 | Cc1cc(CCC(=O)c2sc(C)c3c2C[C@@H]2[C@H]3C2(C)C)cc(C)c1OCC(O)CN (stereo partly drawn) [Example 99, 3-[4-(3-amino-2-hydroxy-propoxy)-3,5-dimethyl-phenyl]-1-((1aS,5aR)-1,1,2-trimethyl-1,1a,5,5a-tetrahydro-3-thia-cyclopropa[a]pentalen-4-yl)-propan-1-one]

Reference: patent US7846964B2, “Thiophene derivatives as spingosine-1-phosphate-1 receptor agonists” (Actelion Pharmaceuticals Ltd., priority 2005, dated 2010)
